Data taken from patent US7109193B2, “Tricyclic diazepines tocolytic oxytocin receptor antagonists” (Wyeth, priority 2001, dated 2006).

Molecular target: T1, human oxytocin receptor (Homo sapiens, UniProt P30559)
T1 construct: host or cells: CHO cells (pcDNA3.1 vector)
T1 sequence (P30559 1-389): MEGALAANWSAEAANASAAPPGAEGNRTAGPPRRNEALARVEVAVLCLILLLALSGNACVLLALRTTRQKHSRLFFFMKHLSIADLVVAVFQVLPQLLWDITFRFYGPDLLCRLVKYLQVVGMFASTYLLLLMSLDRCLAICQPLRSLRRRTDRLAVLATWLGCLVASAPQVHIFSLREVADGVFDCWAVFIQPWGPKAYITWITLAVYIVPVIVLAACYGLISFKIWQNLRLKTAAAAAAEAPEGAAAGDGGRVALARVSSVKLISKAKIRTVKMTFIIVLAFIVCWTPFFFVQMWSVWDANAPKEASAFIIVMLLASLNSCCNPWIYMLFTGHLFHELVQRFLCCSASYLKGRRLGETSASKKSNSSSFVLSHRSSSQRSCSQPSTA
Experiment: Oxytocin binding in Chinese Hamster Ovary cell membranes expressing human oxytocin receptors
Conditions: 100 nM, CHO cell membranes, [3H]oxytocin, values without parentheses, read-out: OT % inhibition @ 100% nM

Structure (SMILES)	inhibition at 0.1 µM [%]
COc1ccccc1-c1ccc(C(=O)N2Cc3ccc(C(=O)n4ccnc4)n3Cc3ccccc32)cc1OC [Example 293, {10-[(2,2′-Dimethoxy[1,1′-biphenyl]-4-yl)carbonyl]-10,11-dihydro-5H-pyrrolo[2,1-c][1,4]benzodiazepin-3-yl}(1H-imidazol-1-yl)methanone]	53
COc1cc(-c2ccccc2C)c(Cl)cc1C(=O)N1Cc2ccc(C(=O)N[C@@H](CCCCNC(=O)OC(C)(C)C)C(N)=O)n2Cc2ccccc21 [Example 304, tert-Butyl (5S)-6-amino-5-[({10-[(6-chloro-3-methoxy-2′-methyl[1,1′-biphenyl]-4-yl)carbonyl]-10,11-dihydro-5H-pyrrolo[2,1-c][1,4]benzodiazepin-3-yl}carbonyl)amino]-6-oxohexylcarbamate]	74
COc1cc(C(=O)N2Cc3ccc(C(=O)N4CCN(CCCN(C)C)CC4)n3Cc3ccccc32)ccc1-n1c(C)ccc1C [Example 320, {4-[3-(Dimethylamino)propyl]-1-piperazinyl}{10-[4-(2,5-dimethyl-1H-pyrrol-1-yl)-3-methoxybenzoyl]-10,11-dihydro-5H-pyrrolo[2,1-c][1,4]benzodiazepin-3-yl}methanone]	34
COc1cc(C(=O)N2Cc3ccc(C(=O)NCCN4CCCCC4)n3Cc3ccccc32)ccc1-n1c(C)ccc1C [Example 314, 10-[4-(2,5-Dimethyl-1H-pyrrol-1-yl)-3-methoxybenzoyl]-N-[2-(1-piperidinyl)ethyl]-10,11-dihydro-5H-pyrrolo[2,1-c][1,4]benzodiazepine-3-carboxamide]	19
COc1ccccc1-c1ccc(C(=O)N2Cc3ccc(C(=O)N[C@@H](Cc4c[nH]cn4)C(N)=O)n3Cc3ccccc32)cc1 [Example 285, N-[(1S)-2-Amino-1-(1H-imidazol-4-ylmethyl)-2-oxoethyl]-10-[(2′-methoxy[1,1′-biphenyl]-4-yl)carbonyl]-10,11-dihydro-5H-pyrrolo[2,1-c][1,4]benzodiazepine-3-carboxamide]	93
COc1cccc(-c2ccc(C(=O)N3Cc4ccc(C(=O)n5ccnc5)n4Cc4ccccc43)cc2C)c1 [Example 289, 1H-Imidazol-1-yl-{10-[(3′-methoxy-2-methyl[1,1′-biphenyl]-4-yl)carbonyl]-10,11-dihydro-5H-pyrrolo[2,1-c][1,4]benzodiazepin-3-yl}methanone]	45
Cc1cc(C(=O)N2Cc3cccn3Cc3ccccc32)ccc1-c1ccncc1 [Example 31, [3-Methyl-4-(4-pyridinyl)phenyl]-[10,11-dihydro-5H-pyrrolo[2,1-c][1,4]benzodiazepin-10-yl]methanone]	69
Cc1cc(C(=O)N2Cc3ccc(C(=O)N[C@@H](Cc4c[nH]cn4)C(N)=O)n3Cc3ccccc32)ccc1-c1ccccc1C(F)(F)F [Example 284, N-[(1S)-2-Amino-1-(1H-imidazol-4-ylmethyl)-2-oxoethyl]-10-{[2-methyl-2′-(trifluoromethyl)[1,1′-biphenyl]-4-yl]carbonyl}-10,11-dihydro-5H-pyrrolo[2,1-c][1,4]benzodiazepine-3-carboxamide]	87
COc1cccc(-c2cc(OC)c(C(=O)N3Cc4ccc(C(=O)N[C@@H](Cc5c[nH]cn5)C(N)=O)n4Cc4ccccc43)cc2Cl)c1 [Example 287, N-[(1S)-2-Amino-1-(1H-imidazol-4-ylmethyl)-2-oxoethyl]-10-[(6-chloro-3,3′-dimethoxy[1,1′-biphenyl]-4-yl)carbonyl]-10,11-dihydro-5H-pyrrolo[2,1-c][1,4]benzodiazepine-3-carboxamide]	88

Continued, values first:

inhibition at 0.1 µM [%]	Structure (SMILES)
17	CC(C)N1CCN(C(=O)c2ccc3n2Cc2ccccc2N(C(=O)c2ccc(-c4cccc5ccccc45)cc2Cl)C3)CC1 [Example 243, {10-[2-Chloro-4-(1-naphthyl)benzoyl]-10,11-dihydro-5H-pyrrolo[2,1-c][1,4]benzodiazepin-3-yl}(4-isopropyl-1-piperazinyl)methanone]
74	COc1ccccc1-c1ccc(C(=O)N2Cc3ccc(C(=O)NCCCN(C)C)n3Cc3ccccc32)cc1C [Example 72, N-[3-(Dimethylamino)propyl]-10-[(2′-methoxy-2-methyl[1,1′-biphenyl]-4-yl)carbonyl]-10,11-dihydro-5H-pyrrolo[2,1-c][1,4]benzodiazepine-3-carboxamide]
98	Cc1ccccc1-c1ccc(C(=O)N2Cc3ccc(C(=O)N4CCCN(C)CC4)n3Cc3ccccc32)cc1C [Example 63, {10-[(2,2′-Dimethyl[1,1′-biphenyl]-4-yl)carbonyl]-10,11-dihydro-5H-pyrrolo[2,1-c][1,4]benzodiazepin-3-yl}(4-methyl-1,4-diazepan-1-yl)methanone]
76	COc1cccc(-c2ccc(C(=O)N3Cc4ccc(C(=O)N5CCN(C)CC5)n4Cc4ccccc43)cc2OC)c1 [Example 57, {10-[(2,3′-Dimethoxy[1,1′-biphenyl]-4-yl)carbonyl]-10,11-dihydro-5H-pyrrolo[2,1-c][1,4]benzodiazepin-3-yl}(4-methyl-1-piperazinyl)methanone]
54	Cc1cc(C(=O)N2Cc3ccc(C(=O)n4ccnc4)n3Cc3ccccc32)ccc1-c1ccccc1C(F)(F)F [Example 294, 1H-Imidazol-1-yl(10-{[2-methyl-2′-(trifluoromethyl)[1,1′-biphenyl]-4-yl]carbonyl}-10,11-dihydro-5H-pyrrolo[2,1-c][1,4]benzodiazepin-3-yl)methanone]
85	Cc1cc(C(=O)N2Cc3ccc(C(=O)N4CCN(CCCN(C)C)CC4)n3Cc3ccccc32)ccc1-c1ccccc1C(F)(F)F [Example 257, {10-[(2-Methyl-2′-trifluoromethyl-[1,1′-biphenyl]-4-yl)carbonyl]-10,11-dihydro-5H-pyrrolo[2,1-c][1,4]benzodiazepin-3-yl}{4-[3-(dimethylamino)propyl]-1-piperazinyl}-methanone]
89	COc1cc(C(=O)N2Cc3ccc(C(=O)N4CCN(C)CC4)n3Cc3ccccc32)ccc1-c1ccccc1C [Example 53, {10-[(2-Methoxy-2′-methyl[1,1′-biphenyl]-4-yl)carbonyl]-10,11-dihydro-5H-pyrrolo[2,1-c][1,4]benzodiazepin-3-yl}(4-methyl-1-piperazinyl)methanone]
79	COc1cccc(-c2cc(OC)c(C(=O)N3Cc4ccc(C(=O)N5CCCN(C)CC5)n4Cc4ccccc43)cc2Cl)c1 [Example 67, {10-[(6-Chloro-3,3′-dimethoxy[1,1′-biphenyl]-4-yl)carbonyl]-10,11-dihydro-5H-pyrrolo[2,1-c][1,4]benzodiazepin-3-yl}(4-methyl-1,4-diazepan-1-yl)methanone]
87	COc1cc(C(=O)N2Cc3ccc(C(=O)N4CCCN(C)CC4)n3Cc3ccccc32)ccc1-c1ccccc1C [Example 66, {10-[(2-Methoxy-2′-methyl[1,1′-biphenyl]-4-yl)carbonyl]-10,11-dihydro-5H-pyrrolo[2,1-c][1,4]benzodiazepin-3-yl}(4-methyl-1,4-diazepan-1-yl)methanone]
24	CN1CCN(C(=O)c2ccc3n2Cc2ccccc2N(C(=O)c2ccc(-c4cccc5ccccc45)cc2Cl)C3)CC1 [Example 58, {10-[2-Chloro-4-(1-naphthyl)benzoyl]-10,11-dihydro-5H-pyrrolo[2,1-c][1,4]benzodiazepin-3-yl}(4-methyl-1-piperazinyl)methanone]
